Source: patent US7976241B2, “Soil remediation method and composition” (priority 2006, dated 2011)

Tests used:
[1] = cited from earlier work
[2] = Chlorinated DNAPL dissolution in control sample without cosolvent-surfactant; assay type: physicochemical; conditions: in presence of DNAPL, no Citrus Burst-3, 50 g/L NaCl, 25° C., 48 hours
Text: A chlorinated solvent DNAPL was obtained from a site consisting of chlorinated solvents and chlorinated semi-volatile compounds. Composition of the chlorinated solvent DNAPL is presented based on determinations using USEPA Methods 8260 and 8270. An aliquot of the DNAPL was mixed with a suitable quantity of deionized water to determine the equilibrium solubility of the individual compounds in the presence of the DNAPL.
The data collected under the experimentation conditions presented in Table 2 were obtained at 25° C. with 60 rpm shaker table mixing for 48 hours. After the shaker was shut off, the samples sat quietly for 5 minutes before the supernatant was analyzed. DNAPLmax represents the maximum concentration of DNAPL that may dissolve, given the mass of DNAPL and the volume of water.
Carbon tetrachloride and tetrachloroethylene comprised more than 87 percent of the DNAPL. Being a saturated compound, carbon tetrachloride is generally a pervasive and difficult to degrade compound once introduced to the subsurface. […] After 48 hours of slowly mixing the DNAPL and water mixtures, the samples were allowed to sit for 5 minutes and then samples of the solubilized fraction of the mixture were collected and analyzed for VOCs using USEPA Method 8260. Samples from experiment number 1, 3, 5, 7 and 8 (control) were analyzed. […]

SMILES | Pure Compound Aqueous Solubility [1] | Observed Solubility in Control Sample [2] [µg/mL]
Clc1c(Cl)c(Cl)c2c(Cl)c(Cl)c(Cl)c(Cl)c2c1Cl [Octachloronaphthalene (OCN), Octachloronaphthalene] | insoluble | 
ClC(Cl)(Cl)Cl [Carbon Tetrachloride (CTC), Carbon Tetrachloride] | 129 µg/mL | 100
